From patent US20250122225A1, “MASP-2 INHIBITORS AND METHODS OF USE” (Omeros Corporation, priority 2023, published 2025)
pKi: −log10 of the molar value. Counter-ions that a name gives are not always drawn.

How the values were obtained:
MASP-2 (CCP1-CCP2-SP) = biological target: T1, MASP-2 (CCP1-CCP2-SP) (Homo sapiens, UniProt O00187); assay: Enzymatic assay for MASP-2 inhibitory activity (fluorogenic substrate); type: biochemical
T1 construct: 15 μL of Enzyme MASP-2 (CCP1-CCP2-SP) in Assay Buffer
How it was run: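 Fluorescence was normalized between no-enzyme and DMSO-only controls to derive % activity, with IC50 taken as equivalent to Ki except for tight-binding inhibitors. Reactions ran 20 min at room temperature in HEPES pH 7.4/NaCl/Tween 20 buffer, using the C2-derived fluorogenic substrate, before acetic acid stop.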

human α-thrombin = biological target: T2, human α-thrombin (Homo sapiens, UniProt P00734); assay: Enzymatic assay for thrombin (fluorogenic peptide substrate Boc-VPR-AMC); type: biochemical
T2 construct: enzyme (human α-thrombin (BioPharm® Lab.)) in assay buffer; purchased BioPharm® Lab
How it was run: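 Assay conditions kept the reaction linear in time, enzyme and substrate, so IC50 approximated Ki apart from tight- or slow-binding cases. Boc-VPR-AMC cleavage by human α-thrombin proceeded 20 min at room temperature in Hepes pH 7.4/NaCl/Tween 20 buffer, then was acid-quenched and read by fluorescence.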

T1 sequence (O00187 445-686 limits assumed): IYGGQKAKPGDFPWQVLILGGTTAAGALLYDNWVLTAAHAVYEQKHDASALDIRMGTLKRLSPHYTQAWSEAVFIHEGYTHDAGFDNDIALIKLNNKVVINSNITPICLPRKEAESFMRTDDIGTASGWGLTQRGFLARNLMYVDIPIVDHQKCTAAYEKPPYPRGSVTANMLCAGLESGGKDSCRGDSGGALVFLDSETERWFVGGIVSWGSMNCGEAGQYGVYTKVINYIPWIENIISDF
T1 sequence (O00187 287-444 partner limits assumed): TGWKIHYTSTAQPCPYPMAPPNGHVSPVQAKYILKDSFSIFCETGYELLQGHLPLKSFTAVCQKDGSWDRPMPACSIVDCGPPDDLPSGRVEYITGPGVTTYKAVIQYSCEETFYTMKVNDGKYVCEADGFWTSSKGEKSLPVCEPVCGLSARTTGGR

| SMILES | pKi (MASP-2 (CCP1-CCP2-SP)) | pKi (human α-thrombin) |
| --- | --- | --- |
| CC[C@@H](Nc1ncc2n(c1=O)[C@H](C(=O)NCc1cc3c(s1)CNC3)CC2)c1ccc(C)cc1 [Compound 266, (S)-N-((5,6-dihydro-4H-thieno[2,3-c]pyrrol-2-yl)methyl)-4-oxo-3-(((R)-1-(p-tolyl)propyl)amino)-4,6,7,8-tetrahydropyrrolo[1,2-a]pyrazine-6-carboxamide trifluoroacetate] | > 6.30 | > 6.30 |
| CC[C@@H](Nc1ncc2n(c1=O)[C@H](C(=O)NCc1cc3c(s1)CNC3)CC2)c1cccc(-c2ccccc2)c1 [Compound 267, (S)-3-(((R)-1-([1,1'-biphenyl]-3-yl)propyl)amino)-N-((5,6-dihydro-4H-thieno[2,3-c]pyrrol-2-yl)methyl)-4-oxo-4,6,7,8-tetrahydropyrrolo[1,2-a]pyrazine-6-carboxamide trifluoroacetate] | > 6.30 | 5.60 to 6.30 |
| CCc1cccc([C@@H](CC)Nc2ncc3n(c2=O)[C@H](C(=O)NCc2cc4c(s2)CNC4)CC3)c1 [Compound 268, (S)-N-((5,6-dihydro-4H-thieno[2,3-c]pyrrol-2-yl)methyl)-3-(((R)-1-(3-ethylphenyl)propyl)amino)-4-oxo-4,6,7,8-tetrahydropyrrolo[1,2-a]pyrazine-6-carboxamide trifluoroacetate] | > 6.30 | > 6.30 |
| C[C@@H](NC(=O)[C@@H]1CCc2cnc(N[C@@H](c3ccccc3)C(C)(C)C)c(=O)n21)c1cc2c(s1)CNC2 [Compound 269, (S)-N-((R)-1-(5,6-dihydro-4H-thieno[2,3-c]pyrrol-2-yl)ethyl)-3-(((R)-2,2-dimethyl-1-phenylpropyl)amino)-4-oxo-4,6,7,8-tetrahydropyrrolo[1,2-a]pyrazine-6-carboxamide trifluoroacetate] | > 6.30 | 5.00 to 5.60 |
| C[C@H](NC(=O)[C@@H]1CCc2cnc(N[C@@H](c3ccccc3)C(C)(C)C)c(=O)n21)c1cc2c(s1)CNC2 [Compound 270, (S)-N-((S)-1-(5,6-dihydro-4H-thieno[2,3-c]pyrrol-2-yl)ethyl)-3-(((R)-2,2-dimethyl-1-phenylpropyl)amino)-4-oxo-4,6,7,8-tetrahydropyrrolo[1,2-a]pyrazine-6-carboxamide trifluoroacetate] | 5.00 to 5.60 | 4.60 to 5.00 |
| O=C(NCc1cc2c(s1)CNC2)[C@@H]1CCc2cnc(NCC3(c4ccccc4)CCC3)c(=O)n21 [Compound 271, (S)-N-((5,6-dihydro-4H-thieno[2,3-c]pyrrol-2-yl)methyl)-4-oxo-3-(((1-phenylcyclobutyl)methyl)amino)-4,6,7,8-tetrahydropyrrolo[1,2-a]pyrazine-6-carboxamide trifluoroacetate] | > 6.30 | > 6.30 |
| C[C@@H](NC(=O)[C@@H]1CCc2cnc(N[C@@H](c3ccccc3)C3CC3)c(=O)n21)c1cc2c(s1)CNC2 [Compound 272, (S)-3-(((R)-cyclopropyl(phenyl)methyl)amino)-N-((R)-1-(5,6-dihydro-4H-thieno[2,3-c]pyrrol-2-yl)ethyl)-4-oxo-4,6,7,8-tetrahydropyrrolo[1,2-a]pyrazine-6-carboxamide trifluoroacetate] | > 6.30 | 5.00 to 5.60 |
| C[C@H](NC(=O)[C@@H]1CCc2cnc(N[C@@H](c3ccccc3)C3CC3)c(=O)n21)c1cc2c(s1)CNC2 [Compound 273, (S)-3-(((R)-cyclopropyl(phenyl)methyl)amino)-N-((S)-1-(5,6-dihydro-4H-thieno[2,3-c]pyrrol-2-yl)ethyl)-4-oxo-4,6,7,8-tetrahydropyrrolo[1,2-a]pyrazine-6-carboxamide trifluoroacetate] | 5.00 to 5.60 | < 4.60 |
| CC(C)[C@@H](Nc1ncc2n(c1=O)[C@H](C(=O)N[C@H](C)c1cc3c(s1)CNC3)CC2)c1ccccc1 [Compound 274, (S)-N-((R)-1-(5,6-dihydro-4H-thieno[2,3-c]pyrrol-2-yl)ethyl)-3-(((R)-2-methyl-1-phenylpropyl)amino)-4-oxo-4,6,7,8-tetrahydropyrrolo[1,2-a]pyrazine-6-carboxamide trifluoroacetate] | > 6.30 | 5.60 to 6.30 |
| CC(C)[C@@H](Nc1ncc2n(c1=O)[C@H](C(=O)N[C@@H](C)c1cc3c(s1)CNC3)CC2)c1ccccc1 [Compound 275, (S)-N-((S)-1-(5,6-dihydro-4H-thieno[2,3-c]pyrrol-2-yl)ethyl)-3-(((R)-2-methyl-1-phenylpropyl)amino)-4-oxo-4,6,7,8-tetrahydropyrrolo[1,2-a]pyrazine-6-carboxamide trifluoroacetate] | > 6.30 | < 4.60 |
| CC[C@@H](Nc1ncc2n(c1=O)[C@H](C(=O)N[C@@H](C)c1cc3c(s1)CNC3)CC2)c1ccccc1 [Compound 278] | > 6.30 | 4.60 to 5.00 |
| O=C(NCc1cc2c(s1)CNC2)[C@@H]1CCc2cnc(N[C@@H](c3ccccc3)C3CCCC3)c(=O)n21 [Compound 279, (S)-3-(((R)-cyclopentyl(phenyl)methyl)amino)-N-((5,6-dihydro-4H-thieno[2,3-c]pyrrol-2-yl)methyl)-4-oxo-4,6,7,8-tetrahydropyrrolo[1,2-a]pyrazine-6-carboxamide] | > 6.30 | > 6.30 |

Further lines, results first:

| pKi (MASP-2 (CCP1-CCP2-SP)) | pKi (human α-thrombin) | SMILES |
| --- | --- | --- |
| > 6.30 | 5.00 to 5.60 | O=C(NCc1cc2c(s1)CNC2)[C@@H]1CCc2cnc(N[C@@H]3CCc4ccc(-c5ccccc5)cc43)c(=O)n21 [Compound 260, (S)-N-((5,6-dihydro-4H-thieno[2,3-c]pyrrol-2-yl)methyl)-4-oxo-3-(((R)-6-phenyl-2,3-dihydro-1H-inden-1-yl)amino)-4,6,7,8-tetrahydropyrrolo[1,2-a]pyrazine-6-carboxamide trifluoroacetate] |
| > 6.30 | > 6.30 | O=C(NCc1cc2c(s1)CNC2)[C@@H]1CCc2cnc(NC3(c4ccccc4)CCC3)c(=O)n21 [Compound 261, (S)-N-((5,6-dihydro-4H-thieno[2,3-c]pyrrol-2-yl)methyl)-4-oxo-3-((1-phenylcyclobutyl)amino)-4,6,7,8-tetrahydropyrrolo[1,2-a]pyrazine-6-carboxamide trifluoroacetate] |
| > 6.30 | 5.60 to 6.30 | CCc1cc(CNc2ncc3n(c2=O)[C@H](C(=O)NCc2cc4c(s2)CNC4)CC3)cc(-c2ccccc2)c1 [Compound 262] |
| > 6.30 | 5.60 to 6.30 | CC[C@@H](Nc1ncc2n(c1=O)[C@H](C(=O)NCc1cc3c(s1)CNC3)CC2)c1ccc2ccccc2c1 [Compound 263, (S)-N-((5,6-dihydro-4H-thieno[2,3-c]pyrrol-2-yl)methyl)-3-(((R)-1-(naphthalen-2-yl)propyl)amino)-4-oxo-4,6,7,8-tetrahydropyrrolo[1,2-a]pyrazine-6-carboxamide trifluoroacetate] |
| > 6.30 | > 6.30 | CC(C)(C)[C@@H](Nc1ncc2n(c1=O)[C@H](C(=O)NCc1cc3c(s1)CNC3)CC2)c1ccccc1 [Compound 264, (S)-N-((5,6-dihydro-4H-thieno[2,3-c]pyrrol-2-yl)methyl)-3-(((R)-2,2-dimethyl-1-phenylpropyl)amino)-4-oxo-4,6,7,8-tetrahydropyrrolo[1,2-a]pyrazine-6-carboxamide trifluoroacetate] |
| > 6.30 | > 6.30 | CC[C@@H](Nc1ncc2n(c1=O)[C@H](C(=O)NCc1cc3c(s1)CNC3)CC2)c1ccccc1C [Compound 265, (S)-N-((5,6-dihydro-4H-thieno[2,3-c]pyrrol-2-yl)methyl)-4-oxo-3-(((R)-1-(o-tolyl)propyl)amino)-4,6,7,8-tetrahydropyrrolo[1,2-a]pyrazine-6-carboxamide trifluoroacetate] |
